Test results: patent US20230087941A1, “COMBINATIONS” (Recurium IP Holdings, LLC, priority 2019, published 2023)

How the values were obtained:
[1] = system: ZR-75-1-R breast cancer tumor cells (Tamoxifen resistant); test: ZR-75-1-R xenograft tumor model; assay type: in vivo; conditions: oral, daily, 28 days, ZR-75-1-R xenograft in BALB/c nude mice
Procedure: (§1) ZR-75-1-R breast cancer tumor cells (Tamoxifen resistant) were maintained in vitro as monolayer culture in RPMI1640 Medium supplemented with 10% fetal bovine serum and 10 μM tamoxifen at 37° C. in an atmosphere of 5% CO2 in air. The cells growing in an exponential growth phase were harvested and counted for tumor inoculation. BALB/c nude mice were implanted subcutaneously in the right flank with ZR-75-1-R tumor cells (1×10^7) in 100 μl PBS:Matrigel (1:1). When tumors reached approximately 191 mm^3, animals were randomly distributed into treatment groups of 10 animals each and dosed orally, daily with vehicle, freebase Compound (A) at 30 mg/kg, Compound 1 at 80 mg/kg, or compound A at 30 mg/kg in combination with Compound 1 at 80 mg/kg for 28 days. In addition, estradiol benzoate injections were delivered by s.c. (40 μg/20 μL, twice weekly). Tumor volumes were evaluated twice per week to calculate tumor volume over time, and mice were weighed twice per week as a surrogate for signs of toxicity. Tumor growth inhibition (TGI) was calculated using the following equation TGI=(1−(Td−T0)/(Cd−C0))×100%. Td and Cd are the mean tumor volumes of the treated and control animals, and TO and CO are the mean tumor volumes of the treated and control animals at the start of the experiment.

[2] = system: MCF-7 breast cancer tumor cells; test: MCF-7 xenograft tumor model; assay type: in vivo; conditions: Compound 1 80 mg/kg, oral, daily; MCF-7 xenograft in BALB/c nude mice
Procedure: as §1, with “In addition, estradiol benzoate injections were delivered by s.c. (40 μg/20 μL, twice weekly).” left out, “Tumor growth inhibition (TGI) was calculated using the following equation TGI=(1−(Td−T0)/(Cd−C0))×100%. Td and Cd are the mean tumor volumes of the treated and control animals, and TO and CO are the mean tumor volumes of the treated and control animals at the start of the experiment.” left out
Example 2: MCF-7 breast cancer tumor cells were cultured in vitro in DMEM Medium supplemented with 15% fetal bovine serum at 37° C. in an atmosphere of 5% CO2 in air. The cells growing in an exponential growth phase were harvested and counted for tumor inoculation. […] Tumor volumes were evaluated twice per week to calculate tumor volume over time, and mice were weighed twice per week as a surrogate for signs of toxicity. TGI values were calculated using the equation provide in Example 1.

Structure (SMILES) | Tumor growth inhibition (TGI) ([1]; Compound 1 80 mg/kg) | Tumor growth inhibition (TGI) [2] | Tumor growth inhibition (TGI) ([1]; freebase Compound (A) 30 mg/kg)
C=CCn1c(=O)c2cnc(Nc3ccc(N4CCN(C)CC4)cc3)nc2n1-c1ccc2c(n1)[C@@](O)(CC)CC2 [Compound 1] | 69.9% | 132.6% | 
C[C@@H]1Cc2c([nH]c3ccccc23)[C@@H](c2c(F)cc(/C=C/C(=O)O)cc2F)N1C12CC(C1)C2 [Compound (A)] |  |  | 43.0%
